The values that follow come from patent US20160002247A1, “8-SUBSTITUTED IMIDAZOPYRIMIDINONE DERIVATIVE HAVING AUTOTAXIN INHIBITORY ACTIVITY” (THE UNIVERSITY OF TOKYO, priority 2013, published 2016).

The first experiment concerns the target T1, Human autotaxin enzyme (Homo sapiens, UniProt Q13822).
T1 construct: purchased R&D System
Nature of the experiment: Evaluation of autotaxin inhibitor, Method B (Test Example 2): TG-mTMP fluorescence. The experiment is classed as biochemical. The conditions noted are these: Assay Method B (Test Example 2), human autotaxin; read-out: Inhibitory Activity (autotaxin enzyme inhibitory activity, IC50 class). In a few lines: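 Human autotaxin in Tris-HCl pH 7.5 buffer with NaCl, MgCl2 and 0.1% BSA was reacted with TG-mTMP (0.5 μM solution added) and test compound for 2 hours at room temperature.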
In general, IC50 refers to the point on the concentration scale where inhibition reaches its midpoint. `CCCCCn1c(NC)cc(=O)n2cc(-c3ccc(Cl)cc3)nc12` [Compound 248]: the IC50 lay within 10 to 100 nM.

As for `CCCCCn1c(NCc2ccc3c(c2)OCO3)cc(=O)n2cc(-c3ccc(Cl)cc3)nc12` [Compound 249], the IC50 lay in the range of 10 to 100 nM.

As to `CCCCCn1c(NCCOC)cc(=O)n2cc(-c3ccc(Cl)cc3)nc12` [Compound 250], the IC50 was 10 to 100 nM.

`CCCCCn1c(NCCc2ccccc2)cc(=O)n2cc(-c3ccc(Cl)cc3)nc12` [Compound 251]: the IC50 lay within 10 to 100 nM.

`CCCCCn1c(N(CCO)CCO)cc(=O)n2cc(-c3ccc(Cl)cc3)nc12` [Compound 253]: the IC50 lay in the range of 10 to 100 nM.

For `CCCCCn1c(N2CCNCC2)cc(=O)n2cc(-c3ccc(Cl)cc3)nc12` [Compound 254], the half-inhibitory concentration (IC50) is less than 10 nM.

As for `CCCCCn1c(N2C(C)CCC2C)cc(=O)n2cc(-c3ccc(Cl)cc3)nc12` (centres unmarked) [Compound 255], the IC50 is less than 10 nM.

Consider `CCCCCn1c(N2CCC[C@H]2C)cc(=O)n2cc(-c3ccc(Cl)cc3)nc12` [Compound 256], for which the half-inhibitory concentration (IC50) was less than 10 nM.

For the compound `CCCCCn1c(N2CCC(C)C2)cc(=O)n2cc(-c3ccc(Cl)cc3)nc12` (centres unmarked) [Compound 257], the IC50 is less than 10 nM.

As to `CCCCCn1c(N2CCC[C@@H]2C)cc(=O)n2cc(-c3ccc(Cl)cc3)nc12` [Compound 258], the 50% inhibitory concentration (IC50) was in the range of 10 to 100 nM.

Consider `CCCCCn1c(N2CCCC2C)cc(=O)n2cc(-c3ccc(Cl)cc3)nc12` (centres unmarked) [Compound 259], for which the concentration for half-maximal inhibition (IC50) fell in the range of 10 to 100 nM.

In the case of `CCCCCn1c(OC2CCCC2)cc(=O)n2cc(-c3ccc(Cl)cc3)nc12` [Compound 260], the IC50 lay in the range of 10 to 100 nM.

In the case of `CCCCCn1c(OC(C)c2ccccc2)cc(=O)n2cc(-c3ccc(Cl)cc3)nc12` (centres unmarked) [Compound 261], the IC50 was in the range of 100 to 1000 nM.

On to `CCCCCn1c(OC(CC(C)C)CC(C)C)cc(=O)n2cc(-c3ccc(Cl)cc3)nc12` [Compound 262], for which the IC50 fell in the range of 100 to 1000 nM.

With `CCCCCCCCOc1cc(=O)n2cc(-c3ccc(Cl)cc3)nc2n1CCCCC` [Compound 263], the IC50 was 100 to 1000 nM.

With `CCCCCn1c(Oc2cccnc2)cc(=O)n2cc(-c3ccc(Cl)cc3)nc12` [Compound 264], the IC50 was 100 to 1000 nM.

Consider `CCCCCn1c(Oc2ccc(-c3ccccc3)cc2)cc(=O)n2cc(-c3ccc(Cl)cc3)nc12` [Compound 265], for which the half-maximal inhibitory concentration (IC50) is greater than 1000 nM.

As for `CCCCCn1c(Oc2ccc(C(=O)CC)cc2)cc(=O)n2cc(-c3ccc(Cl)cc3)nc12` [Compound 266], the concentration for half-maximal inhibition (IC50) was 100 to 1000 nM.

For `CCCCCn1c(OC23CCC(CC2)CC3)cc(=O)n2cc(-c3ccc(Cl)cc3)nc12` [Compound 267], the half-maximal inhibitory concentration (IC50) was in the range of 100 to 1000 nM.

In the case of `CCCCCn1c(Oc2nccs2)cc(=O)n2cc(-c3ccc(Cl)cc3)nc12` [Compound 268], the IC50 was less than 10 nM.

As for `CCCCCn1c(OCCOC)cc(=O)n2cc(-c3ccc(Cl)cc3)nc12` [Compound 269], the IC50 was less than 10 nM.

As to `CCCCCn1c(OC(C)(C)C)cc(=O)n2cc(-c3ccc(Cl)cc3)nc12` [Compound 270], the IC50 was in the range of 100 to 1000 nM.

For the compound `C#CCCCCCCCCCOc1cc(=O)n2cc(-c3ccc(Cl)cc3)nc2n1CCCCC` [Compound 271], the concentration for half-maximal inhibition (IC50) was greater than 1000 nM.

In the case of `CCCCCn1c(OC(C)C)cc(=O)n2cc(-c3ccc(Cl)cc3)nc12` [Compound 272], the half-maximal inhibitory concentration (IC50) was in the range of 10 to 100 nM.

On to `CCCCCn1c(Oc2ccccn2)cc(=O)n2cc(-c3ccc(Cl)cc3)nc12` [Compound 273], for which the concentration for half-maximal inhibition (IC50) is 100 to 1000 nM.

In the case of `CCCCCn1c(N2CC(O)C2)cc(=O)n2cc(-c3ccc(Cl)cc3)nc12` [Compound 274], the half-inhibitory concentration (IC50) is less than 10 nM.

For `CCCCCn1c(N2CCCC2CCCC)cc(=O)n2cc(-c3ccc(Cl)cc3)nc12` (centres unmarked) [Compound 277], the IC50 was in the range of 10 to 100 nM.

Turning to `CCCCCn1c(N2CCCC2CCCc2ccccc2)cc(=O)n2cc(-c3ccc(Cl)cc3)nc12` (centres unmarked) [Compound 278], the IC50 was in the range of 10 to 100 nM.

Turning to `CCCCCn1c(N2CCCC2CCC2CCCCC2)cc(=O)n2cc(-c3ccc(Cl)cc3)nc12` (centres unmarked) [Compound 279], the IC50 lay within 10 to 100 nM.

In the case of `CCCCCn1c(N2CCCC2C(C)CCC)cc(=O)n2cc(-c3ccc(Cl)cc3)nc12` (centres unmarked) [Compound 280], the IC50 was 10 to 100 nM.

As to `O=C(O)C1CCN(c2cc(=O)n3cc(-c4ccc(Cl)cc4)nc3n2CCCC(F)(F)F)CC1` [Compound 283], the concentration for half-maximal inhibition (IC50) is less than 10 nM.

Take `N#Cc1ccc(-c2cn3c(=O)cc(N4CCC(C(=O)O)CC4)n(CCCC(F)(F)F)c3n2)cc1` [Compound 285]: the half-maximal inhibitory concentration (IC50) was less than 10 nM.

With `N#CCCCCn1c(NCc2ccc(C(=O)O)cc2)cc(=O)n2cc(-c3ccc(Cl)cc3)nc12` [Compound 286], the half-inhibitory concentration (IC50) is less than 10 nM.

Turning to `O=C(O)c1ccc(CNc2cc(=O)n3cc(-c4ccc(Cl)cc4)nc3n2CCCC(F)(F)F)cc1` [Compound 287], the IC50 was less than 10 nM.

For `N#Cc1ccc(-c2cn3c(=O)cc(NCc4ccc(C(=O)O)cc4)n(CCCC(F)(F)F)c3n2)cc1` [Compound 289], the IC50 was less than 10 nM.

With `CCCCCn1c(-c2ccccc2)cc(=O)n2cc(-c3ccc(Cl)cc3)nc12` [Compound 366], the IC50 lay in the range of 10 to 100 nM.

For `CCCCCn1c(CO)cc(=O)n2cc(-c3ccc(Cl)cc3)nc12` [Compound 367], the IC50 is less than 10 nM.

Take `CCCCCn1c(-c2ccc(F)cc2)cc(=O)n2cc(-c3ccc(Cl)cc3)nc12` [Compound 368]: the IC50 is less than 10 nM.

As for `CCCCCn1c(CCC)cc(=O)n2cc(-c3ccc(Cl)cc3)nc12` [Compound 369], the 50% inhibitory concentration (IC50) is less than 10 nM.

`CCCCCn1c(C=O)cc(=O)n2cc(-c3ccc(Cl)cc3)nc12` [Compound 370]: the IC50 is less than 10 nM.

On to `CCCCCn1c(COCc2ccccc2)cc(=O)n2cc(-c3ccc(Cl)cc3)nc12` [Compound 371], for which the 50% inhibitory concentration (IC50) fell in the range of 10 to 100 nM.

Take `CCCCCn1c(C(=O)O)cc(=O)n2cc(-c3ccc(Cl)cc3)nc12` [Compound 372]: the half-inhibitory concentration (IC50) lay in the range of 10 to 100 nM.

Regarding `CCCCCn1c(-c2ccc(C(=O)NCCN3CCOCC3)cc2)cc(=O)n2cc(-c3ccc(Cl)cc3)nc12` [Compound 374], the IC50 is less than 10 nM.

In the case of `N#CCCCCn1c(-c2ccc(C(N)=O)cc2)cc(=O)n2cc(-c3ccc(Cl)cc3)nc12` [Compound 379], the IC50 was less than 10 nM.

For `N#CCCCCn1c(-c2ccc(C(=O)NCCN3CCOCC3)cc2)cc(=O)n2cc(-c3ccc(Cl)cc3)nc12` [Compound 380], the IC50 is less than 10 nM.

As to `CN(C)CCNC(=O)c1ccc(-c2cc(=O)n3cc(-c4ccc(C#N)cc4)nc3n2CCCCC#N)cc1` [Compound 384], the half-maximal inhibitory concentration (IC50) was less than 10 nM.

Take `N#CCCCCn1c(-c2ccc(C(N)=O)cc2)cc(=O)n2cc(-c3ccc(C#N)cc3)nc12` [Compound 385]: the IC50 is less than 10 nM.

Turning to `N#CCCCCn1c(-c2ccc(C(=O)NCCN3CCOCC3)cc2)cc(=O)n2cc(-c3ccc(C#N)cc3)nc12` [Compound 386], the 50% inhibitory concentration (IC50) was less than 10 nM.

Consider `N#Cc1ccc(-c2cn3c(=O)cc(-c4ccc(C(=O)NCCN5CCOCC5)cc4)n(CCCC(F)(F)F)c3n2)cc1` [Compound 389], for which the half-maximal inhibitory concentration (IC50) was less than 10 nM.

On to `CCCCCn1c(-c2cc3ccccc3o2)cc(=O)n2cc(-c3ccc(Cl)cc3)nc12` [Compound 392], for which the half-maximal inhibitory concentration (IC50) was in the range of 100 to 1000 nM.

`CCCCCn1c(-c2cc3ccccc3s2)cc(=O)n2cc(-c3ccc(Cl)cc3)nc12` [Compound 393]: the IC50 was 10 to 100 nM.

Consider `CCCCCn1c(-c2ccccc2OC)cc(=O)n2cc(-c3ccc(Cl)cc3)nc12` [Compound 395], for which the half-inhibitory concentration (IC50) lay within 10 to 100 nM.

Turning to `CCCCCn1c(-c2cccc(OC)c2)cc(=O)n2cc(-c3ccc(Cl)cc3)nc12` [Compound 396], the half-inhibitory concentration (IC50) was in the range of 10 to 100 nM.

As to `CCCCCn1c(-c2ccc(OC)cc2)cc(=O)n2cc(-c3ccc(Cl)cc3)nc12` [Compound 397], the concentration for half-maximal inhibition (IC50) was less than 10 nM.

In the case of `CCCCCn1c(/C=C/c2ccccc2)cc(=O)n2cc(-c3ccc(Cl)cc3)nc12` [Compound 398], the concentration for half-maximal inhibition (IC50) was 10 to 100 nM.

With `CCCCCn1c(-c2ccc(N(C)C)cc2)cc(=O)n2cc(-c3ccc(Cl)cc3)nc12` [Compound 399], the IC50 was in the range of 10 to 100 nM.

Turning to `CCCCCn1c(-c2ccc(C#N)cc2)cc(=O)n2cc(-c3ccc(Cl)cc3)nc12` [Compound 400], the IC50 is less than 10 nM.

Consider `CCCCCn1c(-c2ccc(C(=O)N(C)C)cc2)cc(=O)n2cc(-c3ccc(Cl)cc3)nc12` [Compound 402], for which the IC50 is less than 10 nM.

Regarding `CCCCCn1c(-c2ccoc2)cc(=O)n2cc(-c3ccc(Cl)cc3)nc12` [Compound 403], the 50% inhibitory concentration (IC50) lay within 10 to 100 nM.

For `CCCCCn1c(-c2ccc(COC)cc2)cc(=O)n2cc(-c3ccc(Cl)cc3)nc12` [Compound 404], the half-inhibitory concentration (IC50) is less than 10 nM.

On to `CCCCCn1c(C2=CCCCC2)cc(=O)n2cc(-c3ccc(Cl)cc3)nc12` [Compound 408], for which the IC50 was in the range of 10 to 100 nM.

Regarding `CCCCCn1c(-c2ccncc2)cc(=O)n2cc(-c3ccc(Cl)cc3)nc12` [Compound 410], the half-inhibitory concentration (IC50) is less than 10 nM.

As to `CCCCCn1c(-c2ccc(O)cc2)cc(=O)n2cc(-c3ccc(Cl)cc3)nc12` [Compound 411], the IC50 is less than 10 nM.

Take `C/C=C/c1cc(=O)n2cc(-c3ccc(Cl)cc3)nc2n1CCCCC` [Compound 414]: the 50% inhibitory concentration (IC50) fell in the range of 10 to 100 nM.

Regarding `CCCCCn1c(/C=C/C(C)(C)C)cc(=O)n2cc(-c3ccc(Cl)cc3)nc12` [Compound 415], the half-maximal inhibitory concentration (IC50) fell in the range of 10 to 100 nM.

For `CCCCCn1c(-c2ccc(N3CCN(C)CC3)cc2)cc(=O)n2cc(-c3ccc(Cl)cc3)nc12` [Compound 416], the concentration for half-maximal inhibition (IC50) was less than 10 nM.

On to `CCCCCn1c(-c2cc[nH]n2)cc(=O)n2cc(-c3ccc(Cl)cc3)nc12` [Compound 417], for which the IC50 fell in the range of 10 to 100 nM.

Consider `CCCCCn1c(-c2cscn2)cc(=O)n2cc(-c3ccc(Cl)cc3)nc12` [Compound 418], for which the 50% inhibitory concentration (IC50) fell in the range of 10 to 100 nM.

Regarding `CCCCCn1c(-c2ccc(NCC(C)C)nc2)cc(=O)n2cc(-c3ccc(Cl)cc3)nc12` [Compound 419], the half-inhibitory concentration (IC50) was less than 10 nM.

On to `CCCCCn1c(-c2ccc(N(C)CC3CCCCO3)cc2)cc(=O)n2cc(-c3ccc(Cl)cc3)nc12` (centres unmarked) [Compound 420], for which the 50% inhibitory concentration (IC50) fell in the range of 10 to 100 nM.

Staying with this experiment, now noted: Inhibitory Activity (autotaxin enzyme inhibitory activity, IC50 class), Assay Method B (Test Example 2), human autotaxin.
Take `CCCCCn1c(NC2C[C@@H]3CC[C@H]2C3)cc(=O)n2cc(-c3ccc(Cl)cc3)nc12` (some centres unmarked) [Compound 252]: the concentration for half-maximal inhibition (IC50) lay in the range of 10 to 100 nM.
